Values quoted from earlier work in patent US9339478B2, “Pharmaceutical formulation” (RECKITT BENCKISER LLC, priority 2011, dated 2016).

Conditions: per dose, typical

In the case of `COc1ccc2c3c1O[C@H]1[C@@H](O)C=C[C@H]4[C@@H](C2)N(C)CC[C@@]341` [codeine], the “period of therapeutic effect / relief provided by a dose” value is listed as 2.5 to 3 h.
